The results in this text go back to patent US20090158465A1, “TRANSGENIC PLANTS WITH ENHANCED DROUGHT-RESISTANCE AND METHOD FOR PRODUCING THE PLANTS” (priority 2006, published 2009).

In assay [1] the test system is abo1-1 and wild-type leaves. In words: Oxidative stress: leaves from soil-grown plants treated with MV or H2O2 (damage, ion leakage). On the set-up: species or system Arabidopsis thaliana. How it is done:
(§1) The leaves taken from plants grown in soil were treated with 1 μM MV. […] Electrolyte leakage (conductivity) is often used as an indicator of tissue damage. […] Rose Bengal is another reagent that generates H2O2 when exposed to the light. […] This was supported by ion leakage measurements at different time points (FIG. 4H).

The subject of assay [2] is abo1-1 and wild-type seedlings. In words: Oxidative stress: seedlings on MS medium supplemented with MV. The assay is classed as in vivo, Arabidopsis thaliana. From the text:
ABA can induce the expression of genes encoding antioxidant enzymes (Guan, L. et al., Plant Physiol. 117:217-224 (1998); Zhu, D. et al., Plant Physiol. 106:173-178 (1994)). ABA also induces the production of reactive oxygen species that serve as a second messenger in ABA signaling in guard cells (Jiang, M. et al., Plant Cell Physiol. 42:1265-127 (2001); Pei, Z. M. et al., Nature 406:731-73 (2000)). In order to test whether the ABA sensitivity of abo1-1 seedlings might be connected with reactive oxygen species, we analyzed the response of abo1-1 mutant plants to oxidative stress. Methyl viologen (MV) (paraquat) inhibits electron transport in the reduction of NADP to NADPH during photosynthesis and thus enhances H2O2 production in chloroplasts under light (Suntres, Z. E. Toxicology 180:65-7 (2002)). Seedlings grown on MS medium for 5 days were transferred to new MS medium supplemented with different concentrations of MV. The abo1-1 seedlings grew well on MS medium supplemented with 3 μM MV, while more than 50% of wild-type seedlings were killed at this concentration (FIG. 4A) after a 5-day treatment. […] Seed germination was inhibited to similar extents for both abo1-1 and wild-type plants by various concentrations of MV. After radicles emerged, the young seedlings were more sensitive to MV.

Assay [3] has as its system abo1 mutant and wild-type seedlings. In words: Oxidative stress: seedlings exposed to Rose Bengal. The assay is classed as in vivo, Arabidopsis thaliana. The following applies: 10 μM Rose Bengal for 3 days. The protocol:
as §1

Assay [4] relates to abo1-1 and wild-type seedlings. The assay is described as follows: Seedling growth on MS medium containing ABA. The assay is classed as in vivo, Arabidopsis thaliana. The following applies: abo1-1 versus wild type; 5-day-old seedlings transferred to different concentrations of ABA, scored one week later. How it is done:
Plants were grown in 340-ml pots filled with a mixture of peat/forest soil and vermiculite (3:1) in a greenhouse at 22° C., with light intensity of 50 μmol m-2 s-1 and 70% rH under long-day conditions (16-h-light/8-h-dark cycle). Seedlings were germinated and grown on Murashige and Skoog (MS) medium (M5519; Sigma) supplemented with 3% (wt/vol) sucrose and 0.8% agar under the same growth conditions.
We also analyzed the ABA sensitivities of abo1-plants in seed germination and seedling growth. Seedlings grown for 5 days on MS medium were transferred to MS media containing different concentrations of ABA. One week later, the plants were scored for visible changes. Without ABA, the root growth of abo1-1 plants was slower than that of wild-type plants but they had similar levels of shoot growth. […] The postgermination growth of abo1-1 seedlings was more impaired than that of the wild type, as indicated by the ratio of seedlings with green cotyledons to the total number of seedlings after germination for 1 week (FIG. 3D).

The test system of assay [5] is stomata (guard cells) of abo1-1 and wild-type plants. In words: Stomatal aperture (closing) bioassay with ABA. The assay is classed as cell-based, Arabidopsis thaliana. The protocol:
Stomatal closing assays were conducted as described previously (Pei, Z. M. et al., Plant Cell 9:409-42 (1997)). Rosette leaves were floated in solutions containing 50 μM CaCl2, 10 mM KCl, 10 mM MES [2-(N-morpholino)ethanesulfonic acid]-Tris, pH 6.15, and exposed to light (150 μmol m-2 s-1) for 2 h. […] After ABA treatment for 2 h, stomatal apertures were measured as described previously (Pei, Z. M. et al., Plant Cell 9:409-42 (1997)). Values are means ±standard errors (SE) (n=30). Significance (P<0.05) was assessed by Student's t test.
In order to determine the cause of the drought-resistant phenotype of the abo1-1 mutant, we performed experiments to determine whether this phenotype is related to increased sensitivity of stomatal closure to ABA. abo1-1 and wild-type plants were exposed to high humidity for 12 h to open stomata fully. […]

On to `C[n+]1ccc(-c2cc[n+](C)cc2)cc1` [MV, Methyl viologen], for which the “ion leakage (electrolyte leakage, conductivity)” value in assay [1] (abo1-1 leaves versus wild type, 1 μM MV) was “substantially less ion leakage than the wild-type leaves”. In addition, the leaf damage entry was “enhanced anthocyanin pigmentation but without any apparent chlorotic symptom” in assay [1] (abo1-1 leaves, 1 μM MV, after 5 days); “severely damaged and displayed chlorotic spots or bleaching” in assay [1] (wild-type leaves, 1 μM MV, after 5 days). Besides, the “cotyledons affected (greening prevented)” value in assay [2] (abo1-1, 1.2 μM MV for 10 days) was determined as 40%. Further, the seedling growth result in assay [2] (abo1-1 seedlings, 3 μM MV, 5-day treatment) is “grew well”. Further, the seedling survival entry is reported as “still survived” in assay [2] (abo1 mutant seedlings, 6 μM MV) and “completely killed all” in assay [2] (wild-type seedlings, 4 μM MV). In addition, the “seedlings with cotyledon greening prevented” value in assay [2] (wild-type seedlings, 1.2 μM MV for 10 days) was “more than 90%”. Further, in assay [2] (wild-type seedlings, 3 μM MV, 5-day treatment), the seedlings killed result is recorded as “more than 50%”.
Turning to `O=C([O-])c1c(Cl)c(Cl)c(Cl)c(Cl)c1-c1c2cc(I)c(=O)c(I)c-2oc2c(I)c([O-])c(I)cc12.[Na+].[Na+]` [Rose Bengal], the cotyledon damage result is “no chlorotic symptom observed” in assay [3] (abo1 mutant) and “severely damaged the cotyledons” in assay [3] (wild-type seedlings).
As for `OO` [H2O2], the leaf damage result in assay [1] (wild-type leaves versus abo1-1 leaves, 10 mM H2O2 for 5 days) is reported as “more damaged than abo1-1 leaves”.
Consider `CC1=CC(=O)CC(C)(C)[C@@]1(O)/C=C/C(C)=C\C(=O)O` [ABA, abscisic acid], for which the “root and shoot growth” value in assay [4] is reported as “more inhibited than that of the wild type”. For the same molecule, the stomatal closure entry in assay [5] (abo1-1 plants, 1 μM ABA for 2 h) was “almost completely closed”; in assay [5] (wild-type plants, 20 μM ABA, same treatment time (2 h), data not shown), “did not completely close”. For the same molecule, the “ABA concentration enhancing stomatal closure in abo1-1 to the same degree as 10 μM ABA in the wild type” value in assay [5] (abo1-1 plants, preopened stomata, FIG. 2B) worked out at 0.5 µM.
